Among the data in ChEMBL document CHEMBL3621077, “Synthesis of hybrid anticancer agents based on kinase and histone deacetylase inhibitors” (Medchemcomm, 2014) are IC50, inhibition and Activity values, retold here.

Assay [1] addresses Vascular endothelial growth factor receptor 2 (Homo sapiens, UniProt P35968). Nature of the assay: Inhibition of VEGFR2 (unknown origin).
Assay [2] addresses Platelet-derived growth factor receptor beta (Homo sapiens, UniProt P09619). Nature of the assay: Inhibition of PDGFRb (unknown origin).
The target in assay [3] is Vascular endothelial growth factor receptor 1 (Homo sapiens, UniProt P17948). Description: Inhibition of VEGFR1 (unknown origin).
The target in assay [4] is Histone deacetylase (Homo sapiens) (UniProt Q13547+O15379+Q9UBN7+Q92769+Q9UQL6+Q8WUI4+Q9BY41+Q96DB2+P56524+Q9UKV0+Q969S8). Nature of the assay: Inhibition of HDAC isolated from human HeLa cells at 1 uM by fluorimetric assay. In kind it is cell-free.
Assay [5] concerns the target Platelet-derived growth factor receptor alpha (Homo sapiens, UniProt P16234). Description: Inhibition of PDGFRa (unknown origin).
Assay [6] concerns the target Histone deacetylase. In kind it is cell-based, Homo sapiens. The following applies: hela.
The species entered for assay [7] is Xenopus laevis. The following applies: at 10 to 100 µM.
Assay [8] concerns the target T1, Histone deacetylase 8 (Homo sapiens, UniProt Q9BY41).
T1 sequence (Q9BY41 whole entry): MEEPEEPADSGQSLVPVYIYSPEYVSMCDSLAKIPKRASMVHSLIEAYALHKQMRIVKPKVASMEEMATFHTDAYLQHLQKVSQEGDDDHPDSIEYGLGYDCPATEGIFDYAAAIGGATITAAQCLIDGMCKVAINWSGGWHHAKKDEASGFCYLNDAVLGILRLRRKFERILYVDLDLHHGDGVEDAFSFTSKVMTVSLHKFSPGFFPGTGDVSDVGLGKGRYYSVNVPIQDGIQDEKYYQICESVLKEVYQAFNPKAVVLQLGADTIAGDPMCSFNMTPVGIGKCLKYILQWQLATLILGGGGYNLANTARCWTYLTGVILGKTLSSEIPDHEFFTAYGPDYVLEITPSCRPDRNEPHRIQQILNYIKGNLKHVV
Description: Inhibition of HDAC8 (unknown origin).

The target in assay [9] is Histone deacetylase 4 (Homo sapiens, UniProt P56524). Description: Inhibition of HDAC4 (unknown origin).
Assay [10] addresses Histone deacetylase 3 (Homo sapiens, UniProt O15379). Description: Inhibition of HDAC3 (unknown origin).
In assay [11] the target is Histone deacetylase 1 (Homo sapiens, UniProt Q13547). Description: Inhibition of HDAC1 (unknown origin).
Chain of Histone deacetylase 1 (Q13547 whole entry): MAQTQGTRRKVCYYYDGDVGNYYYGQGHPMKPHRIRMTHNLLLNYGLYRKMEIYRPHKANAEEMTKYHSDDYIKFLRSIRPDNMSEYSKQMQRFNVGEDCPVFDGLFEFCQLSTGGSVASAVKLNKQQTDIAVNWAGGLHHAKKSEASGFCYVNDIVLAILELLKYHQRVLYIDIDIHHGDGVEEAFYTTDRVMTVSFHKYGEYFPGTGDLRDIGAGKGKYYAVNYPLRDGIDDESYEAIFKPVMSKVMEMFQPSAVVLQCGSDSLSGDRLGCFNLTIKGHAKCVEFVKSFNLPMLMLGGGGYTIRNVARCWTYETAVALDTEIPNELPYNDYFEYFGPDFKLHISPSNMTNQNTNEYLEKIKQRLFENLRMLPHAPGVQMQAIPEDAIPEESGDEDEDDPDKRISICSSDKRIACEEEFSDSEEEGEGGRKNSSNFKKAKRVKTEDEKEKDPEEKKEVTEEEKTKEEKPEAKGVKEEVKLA
Assay [12] addresses Histone deacetylase 5 (Homo sapiens, UniProt Q9UQL6). Description: Inhibition of HDAC5 (unknown origin).
The target in assay [13] is T2, Histone deacetylase 7 (Homo sapiens, UniProt Q8WUI4).
T2 sequence (Q8WUI4 whole entry): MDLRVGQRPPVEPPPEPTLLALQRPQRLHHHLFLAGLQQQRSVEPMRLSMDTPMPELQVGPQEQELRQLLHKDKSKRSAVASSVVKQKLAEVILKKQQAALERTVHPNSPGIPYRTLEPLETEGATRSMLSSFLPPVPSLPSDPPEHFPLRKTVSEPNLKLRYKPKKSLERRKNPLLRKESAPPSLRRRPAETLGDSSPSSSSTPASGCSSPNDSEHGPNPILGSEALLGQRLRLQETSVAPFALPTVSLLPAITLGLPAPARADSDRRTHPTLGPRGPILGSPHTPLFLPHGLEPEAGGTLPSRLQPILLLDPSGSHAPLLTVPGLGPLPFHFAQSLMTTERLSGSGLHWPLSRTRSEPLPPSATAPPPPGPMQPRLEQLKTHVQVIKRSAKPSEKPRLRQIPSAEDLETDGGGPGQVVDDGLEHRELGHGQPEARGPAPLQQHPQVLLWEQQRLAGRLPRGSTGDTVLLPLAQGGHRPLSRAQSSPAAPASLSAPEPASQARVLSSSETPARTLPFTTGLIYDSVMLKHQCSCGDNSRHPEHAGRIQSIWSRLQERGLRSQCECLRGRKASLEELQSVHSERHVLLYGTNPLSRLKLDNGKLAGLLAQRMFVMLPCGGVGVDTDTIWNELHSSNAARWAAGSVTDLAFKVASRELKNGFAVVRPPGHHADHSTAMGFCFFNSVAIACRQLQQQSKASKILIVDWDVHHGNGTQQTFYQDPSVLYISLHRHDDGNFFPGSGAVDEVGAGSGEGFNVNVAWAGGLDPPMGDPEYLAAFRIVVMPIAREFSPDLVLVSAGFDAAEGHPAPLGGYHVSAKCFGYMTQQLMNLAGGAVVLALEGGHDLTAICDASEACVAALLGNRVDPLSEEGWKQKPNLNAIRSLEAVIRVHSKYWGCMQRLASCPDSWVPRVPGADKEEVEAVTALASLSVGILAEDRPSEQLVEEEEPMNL
Description: Inhibition of HDAC7 (unknown origin).

Assay [14] has as its target T3, Protein deacetylase HDAC6 (Homo sapiens, UniProt Q9UBN7).
T3 sequence (Q9UBN7 whole entry): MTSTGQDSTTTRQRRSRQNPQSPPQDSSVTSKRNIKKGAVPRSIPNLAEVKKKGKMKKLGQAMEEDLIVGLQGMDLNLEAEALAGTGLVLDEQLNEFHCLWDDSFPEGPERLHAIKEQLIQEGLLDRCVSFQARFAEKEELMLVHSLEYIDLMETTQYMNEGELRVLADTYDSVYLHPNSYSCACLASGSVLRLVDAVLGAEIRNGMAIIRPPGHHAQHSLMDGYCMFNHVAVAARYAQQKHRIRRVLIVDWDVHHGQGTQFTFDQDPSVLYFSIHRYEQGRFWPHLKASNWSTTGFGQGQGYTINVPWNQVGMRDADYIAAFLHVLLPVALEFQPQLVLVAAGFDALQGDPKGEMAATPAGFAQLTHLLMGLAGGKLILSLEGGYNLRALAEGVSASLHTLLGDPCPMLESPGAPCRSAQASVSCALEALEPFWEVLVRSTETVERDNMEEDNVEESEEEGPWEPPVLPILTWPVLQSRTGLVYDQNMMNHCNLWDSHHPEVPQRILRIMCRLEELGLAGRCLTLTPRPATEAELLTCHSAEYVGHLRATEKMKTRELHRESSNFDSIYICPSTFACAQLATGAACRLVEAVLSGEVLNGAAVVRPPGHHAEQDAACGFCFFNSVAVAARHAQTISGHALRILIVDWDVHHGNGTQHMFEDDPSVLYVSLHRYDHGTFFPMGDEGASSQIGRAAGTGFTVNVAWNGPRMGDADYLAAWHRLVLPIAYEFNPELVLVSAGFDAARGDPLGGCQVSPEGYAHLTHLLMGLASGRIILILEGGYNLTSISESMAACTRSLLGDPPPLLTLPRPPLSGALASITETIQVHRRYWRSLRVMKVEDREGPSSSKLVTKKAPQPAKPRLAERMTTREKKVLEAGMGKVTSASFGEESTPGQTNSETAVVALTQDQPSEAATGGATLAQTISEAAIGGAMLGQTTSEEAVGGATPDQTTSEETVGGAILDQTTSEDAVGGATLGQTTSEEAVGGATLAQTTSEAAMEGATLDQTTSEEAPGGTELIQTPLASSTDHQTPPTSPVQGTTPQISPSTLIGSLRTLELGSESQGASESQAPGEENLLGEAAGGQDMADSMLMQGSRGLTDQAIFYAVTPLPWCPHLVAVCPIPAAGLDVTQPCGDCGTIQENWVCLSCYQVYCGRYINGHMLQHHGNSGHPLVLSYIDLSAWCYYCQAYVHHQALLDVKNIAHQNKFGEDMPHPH
Nature of the assay: Inhibition of HDAC6 (unknown origin).

Assay [15] deals with Histone deacetylase 9 (Homo sapiens, UniProt Q9UKV0). Nature of the assay: Inhibition of HDAC9 (unknown origin).
Chain of Histone deacetylase 9 (Q9UKV0 whole entry): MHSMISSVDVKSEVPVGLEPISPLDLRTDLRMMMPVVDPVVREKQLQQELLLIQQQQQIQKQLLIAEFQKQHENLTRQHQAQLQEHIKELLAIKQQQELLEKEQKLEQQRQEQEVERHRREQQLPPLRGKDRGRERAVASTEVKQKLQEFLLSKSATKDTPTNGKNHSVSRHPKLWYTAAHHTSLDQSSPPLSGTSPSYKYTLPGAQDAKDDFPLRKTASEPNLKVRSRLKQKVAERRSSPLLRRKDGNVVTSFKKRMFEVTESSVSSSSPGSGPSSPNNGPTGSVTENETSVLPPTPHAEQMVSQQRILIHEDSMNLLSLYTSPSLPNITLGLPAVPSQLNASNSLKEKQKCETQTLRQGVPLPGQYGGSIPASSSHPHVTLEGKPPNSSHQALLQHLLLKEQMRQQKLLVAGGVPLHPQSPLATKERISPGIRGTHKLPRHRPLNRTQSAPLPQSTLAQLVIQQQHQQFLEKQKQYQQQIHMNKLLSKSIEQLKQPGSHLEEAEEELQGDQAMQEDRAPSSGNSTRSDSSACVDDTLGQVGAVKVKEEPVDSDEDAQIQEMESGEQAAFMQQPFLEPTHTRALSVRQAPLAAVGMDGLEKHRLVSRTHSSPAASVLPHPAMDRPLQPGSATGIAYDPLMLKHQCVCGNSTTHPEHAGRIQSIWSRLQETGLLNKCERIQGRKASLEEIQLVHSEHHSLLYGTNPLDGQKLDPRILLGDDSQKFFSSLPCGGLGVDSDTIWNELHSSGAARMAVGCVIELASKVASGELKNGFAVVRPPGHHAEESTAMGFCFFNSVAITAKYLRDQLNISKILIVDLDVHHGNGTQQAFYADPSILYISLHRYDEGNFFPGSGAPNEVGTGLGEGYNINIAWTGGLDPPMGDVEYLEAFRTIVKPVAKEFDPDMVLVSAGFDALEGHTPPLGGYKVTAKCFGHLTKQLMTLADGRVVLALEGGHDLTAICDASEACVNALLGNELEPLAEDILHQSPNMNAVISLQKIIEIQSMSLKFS
Assay [16] deals with Histone deacetylase 2 (Homo sapiens, UniProt Q92769).
Chain of Histone deacetylase 2 (Q92769 whole entry): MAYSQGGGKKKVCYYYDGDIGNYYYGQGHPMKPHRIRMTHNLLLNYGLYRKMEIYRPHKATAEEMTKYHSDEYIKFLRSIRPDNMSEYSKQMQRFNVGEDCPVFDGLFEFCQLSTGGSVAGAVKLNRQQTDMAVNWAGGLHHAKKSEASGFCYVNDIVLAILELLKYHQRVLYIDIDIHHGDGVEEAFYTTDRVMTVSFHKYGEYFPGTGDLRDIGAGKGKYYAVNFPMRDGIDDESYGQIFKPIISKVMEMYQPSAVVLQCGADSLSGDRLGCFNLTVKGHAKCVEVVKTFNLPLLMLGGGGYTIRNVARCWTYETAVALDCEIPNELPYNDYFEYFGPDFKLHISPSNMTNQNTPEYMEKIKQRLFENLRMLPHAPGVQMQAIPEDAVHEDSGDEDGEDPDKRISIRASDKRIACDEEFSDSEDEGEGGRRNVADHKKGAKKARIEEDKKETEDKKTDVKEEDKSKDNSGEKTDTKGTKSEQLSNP
Assay [17] has as its system MDA-MB-231. Description: Cytotoxicity against human MDA-MB-231 cells assessed as reversal of cell viability at 10 uM after 72 hrs by MTT assay in presence of SAHA. It counts as functional, cell-based. On the technique in general: Formazan colour is commonly taken as a measure of viable cells.
Assay [18] concerns MDA-MB-231. Nature of the assay: Cytotoxicity against human MDA-MB-231 cells assessed as reversal of cell viability at 200 uM after 72 hrs by MTT assay in presence of SAHA. It counts as functional.

Active and inactive are the calls of the source. The rule behind the calls is not given here.

Chain of Histone deacetylase 3 (O15379 whole entry): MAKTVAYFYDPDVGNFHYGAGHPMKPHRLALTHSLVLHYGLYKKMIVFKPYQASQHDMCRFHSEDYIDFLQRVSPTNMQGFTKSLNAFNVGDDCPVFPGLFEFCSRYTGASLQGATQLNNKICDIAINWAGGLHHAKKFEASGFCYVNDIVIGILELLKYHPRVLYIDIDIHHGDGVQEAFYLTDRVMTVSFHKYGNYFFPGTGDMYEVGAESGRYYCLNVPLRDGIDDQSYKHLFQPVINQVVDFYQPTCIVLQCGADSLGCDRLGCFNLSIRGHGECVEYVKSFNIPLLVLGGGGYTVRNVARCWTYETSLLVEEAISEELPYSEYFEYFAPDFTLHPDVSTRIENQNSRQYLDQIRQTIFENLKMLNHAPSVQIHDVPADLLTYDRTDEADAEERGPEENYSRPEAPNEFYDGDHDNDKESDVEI
Chain of Platelet-derived growth factor receptor alpha (P16234 whole entry): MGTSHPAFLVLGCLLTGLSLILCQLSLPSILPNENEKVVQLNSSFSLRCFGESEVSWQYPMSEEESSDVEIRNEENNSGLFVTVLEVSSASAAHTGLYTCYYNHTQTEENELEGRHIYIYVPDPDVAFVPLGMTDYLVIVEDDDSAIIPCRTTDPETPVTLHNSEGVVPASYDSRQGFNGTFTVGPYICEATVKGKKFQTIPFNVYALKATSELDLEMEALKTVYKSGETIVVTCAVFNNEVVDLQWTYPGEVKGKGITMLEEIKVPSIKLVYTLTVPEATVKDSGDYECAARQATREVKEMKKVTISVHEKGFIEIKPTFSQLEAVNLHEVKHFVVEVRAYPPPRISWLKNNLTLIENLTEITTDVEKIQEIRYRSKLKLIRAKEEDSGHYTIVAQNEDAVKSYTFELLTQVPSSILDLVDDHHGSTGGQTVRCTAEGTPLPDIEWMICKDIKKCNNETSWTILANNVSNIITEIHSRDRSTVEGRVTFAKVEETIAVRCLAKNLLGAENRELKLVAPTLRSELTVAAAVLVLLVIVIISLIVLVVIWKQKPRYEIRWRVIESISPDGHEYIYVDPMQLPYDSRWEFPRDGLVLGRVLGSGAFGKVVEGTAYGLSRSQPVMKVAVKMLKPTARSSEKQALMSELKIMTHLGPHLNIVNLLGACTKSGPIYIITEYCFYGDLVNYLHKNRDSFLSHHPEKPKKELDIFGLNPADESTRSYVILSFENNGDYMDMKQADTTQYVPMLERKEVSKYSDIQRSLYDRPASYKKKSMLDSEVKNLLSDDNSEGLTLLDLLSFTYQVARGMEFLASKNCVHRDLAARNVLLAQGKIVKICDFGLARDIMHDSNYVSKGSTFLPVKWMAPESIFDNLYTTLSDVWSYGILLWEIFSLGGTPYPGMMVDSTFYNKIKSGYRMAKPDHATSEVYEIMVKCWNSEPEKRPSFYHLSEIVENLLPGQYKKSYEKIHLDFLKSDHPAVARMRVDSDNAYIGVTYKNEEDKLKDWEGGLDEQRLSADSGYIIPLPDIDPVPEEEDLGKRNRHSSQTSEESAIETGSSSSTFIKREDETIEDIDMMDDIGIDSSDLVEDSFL
Chain of Vascular endothelial growth factor receptor 2 (P35968 whole entry): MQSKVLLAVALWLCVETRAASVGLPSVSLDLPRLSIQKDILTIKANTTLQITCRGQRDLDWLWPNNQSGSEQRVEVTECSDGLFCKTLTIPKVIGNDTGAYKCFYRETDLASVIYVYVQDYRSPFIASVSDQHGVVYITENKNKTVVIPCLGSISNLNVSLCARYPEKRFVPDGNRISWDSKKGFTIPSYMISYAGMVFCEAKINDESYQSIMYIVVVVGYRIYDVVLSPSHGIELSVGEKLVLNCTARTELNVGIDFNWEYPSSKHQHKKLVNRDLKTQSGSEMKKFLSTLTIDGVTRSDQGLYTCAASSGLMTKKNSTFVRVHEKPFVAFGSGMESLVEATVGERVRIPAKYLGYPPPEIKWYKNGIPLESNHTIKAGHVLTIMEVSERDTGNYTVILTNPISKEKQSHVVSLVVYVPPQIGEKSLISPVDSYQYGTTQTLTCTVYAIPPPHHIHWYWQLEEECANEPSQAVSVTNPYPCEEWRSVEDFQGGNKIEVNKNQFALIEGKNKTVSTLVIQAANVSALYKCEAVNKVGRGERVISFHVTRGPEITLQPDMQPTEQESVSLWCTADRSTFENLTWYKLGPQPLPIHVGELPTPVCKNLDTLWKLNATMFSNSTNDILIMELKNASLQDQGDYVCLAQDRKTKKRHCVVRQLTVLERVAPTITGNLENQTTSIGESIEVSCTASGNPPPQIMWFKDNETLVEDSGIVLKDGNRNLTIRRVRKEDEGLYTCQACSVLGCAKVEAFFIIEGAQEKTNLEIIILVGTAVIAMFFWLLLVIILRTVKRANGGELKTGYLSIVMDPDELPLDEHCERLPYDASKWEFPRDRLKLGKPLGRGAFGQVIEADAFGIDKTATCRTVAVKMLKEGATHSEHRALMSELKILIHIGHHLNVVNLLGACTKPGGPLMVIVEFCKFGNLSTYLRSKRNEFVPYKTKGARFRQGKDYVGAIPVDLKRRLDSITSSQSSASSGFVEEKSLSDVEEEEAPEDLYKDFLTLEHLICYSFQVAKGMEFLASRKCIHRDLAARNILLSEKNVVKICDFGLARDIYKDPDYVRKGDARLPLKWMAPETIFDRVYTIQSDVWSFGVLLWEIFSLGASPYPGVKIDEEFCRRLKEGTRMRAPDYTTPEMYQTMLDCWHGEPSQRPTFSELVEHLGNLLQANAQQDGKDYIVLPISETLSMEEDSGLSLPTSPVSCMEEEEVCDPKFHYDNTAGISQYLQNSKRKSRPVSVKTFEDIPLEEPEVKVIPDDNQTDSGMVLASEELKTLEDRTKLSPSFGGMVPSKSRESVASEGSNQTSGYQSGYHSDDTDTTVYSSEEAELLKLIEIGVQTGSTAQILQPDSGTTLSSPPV

As a reminder, the IC50 is the concentration that inhibits the measured activity by half. For `CSCCCNC(=O)c1ccc2c(c1)NC(=O)/C2=C\c1[nH]c(C)cc1C`, the IC50 entry in assay [1], in assay [2] and in [3] was “Not Active” in each case.

The inhibition is the drop in the measured response relative to a control, in per cent. In the case of `Cc1cc(C)c(/C=C2\C(=O)Nc3ccc(NC(=O)CCCCCCC(=O)NO)cc32)[nH]1`, the inhibition in [4] is more than 20%. The concentration for half-maximal inhibition (IC50) entry is recorded as “Not Active” in [1]; “Not Active” in assay [2]; “Not Active” in assay [5]; 443 nM in assay [6]; “Not Active” in assay [3].

As to `Cc1cc(C)c(/C=C2\C(=O)Nc3ccccc32)[nH]1`, the inhibition entry in [7] is “Active”.

Turning to `O=C(CCCCC(=O)Nc1ccc2c(c1)/C(=C/c1ccc[nH]1)C(=O)N2)NO`, the IC50 was 312 nM in [8] (read-out: IC50); “Not Active” in [9]; 9.77 nM in assay [10]; 9.37 nM in [11]; “Not Active” in [12]; 290 nM in assay [1] (read-out: IC50). Besides, the half-maximal inhibitory concentration (IC50) in assay [2] (read-out: IC50) is 518 nM; in assay [13], “Not Active”; in assay [14] (read-out: IC50) it was 1.61 nM; in [5], “Not Active”; in [15], “Not Active”; in assay [6], 935 nM. Also, the results for the half-maximal inhibitory concentration (IC50) in [16] and in assay [3] (read-out: IC50) were 20.4 nM and 205 nM, respectively.

Regarding `CSCCCNC(=O)c1ccc2c(c1)/C(=C/c1[nH]c(C)cc1C)C(=O)N2`, the figures for the IC50 in assay [1] (read-out: IC50), in assay [2] (read-out: IC50) and in [3] were 38 nM, 8 nM and “Not Active”, respectively.

Take `Nc1ccccc1NC(=O)CCCCC(=O)Nc1ccc2c(c1)/C(=C/c1ccc[nH]1)C(=O)N2`: the IC50 result was “Not Active” in [8]; “Not Active” in assay [9]; 2.42 nM in assay [10]; 1260 nM in assay [11]; “Not Active” in assay [12]; “Not Active” in assay [1]. The IC50 result in assay [2] was “Not Active”; in [13], “Not Active”; in assay [14], “Not Active”; in [5], “Not Active”; in assay [15], “Not Active”; in assay [16] it was 3290 nM. Besides, in [3], the 50% inhibitory concentration (IC50) entry is given as “Not Active”.

For the compound `O=C1Nc2ccc(O)cc2/C1=C/c1ccc[nH]1`, the IC50 in [1] (read-out: IC50) worked out at 405 nM; in [2] (read-out: IC50), 637 nM; in assay [5] (read-out: IC50) it was 406 nM; in assay [3] (read-out: IC50) it was 116 nM. The outcome in assay [17] was Active. Further, the Activity in assay [18] is 70%.

As for `Nc1ccccc1NC(=O)CCCCCCC(=O)Nc1ccc2c(c1)/C(=C/c1ccc[nH]1)C(=O)N2`, the IC50 result in assay [8] is “Not Active”; in assay [9], “Not Active”; in assay [10], 394 nM; in assay [11], 373 nM; in assay [12] it was “Not Active”; in assay [1], “Not Active”. Moreover, the IC50 result is “Not Active” in assay [2]; “Not Active” in assay [13]; 4610 nM in [14] (read-out: IC50); “Not Active” in assay [5]; “Not Active” in assay [15]; 2230 nM in assay [16]. The IC50 entry in [3] was “Not Active”.

With `O=C(CCCCCCC(=O)Nc1ccccc1)NO` [VORINOSTAT], the 50% inhibitory concentration (IC50) result in assay [9], in assay [12], in [13] and in [15] was “Not Active” each time.
